In article PMC4613828 (PLoS Pathogens, 2015):

Experiments:
[1] = test system: HRV02 (human rhinovirus type 2); test: Virus-cell-based antiviral assay (CPE reduction, MTS); settings: Human rhinovirus sp., HeLa H1 cells (footnote c), 35°C
[2] = test system: CVA9 (strain Bozek); test: as above; parameters: species or system Coxsackie A9; settings: Enterovirus B, BGM cells
[3] = test system: CVB3 (strain Nancy); test: as above; parameters: species or system Coxsackievirus B3; settings: Enterovirus B, BGM cells
[4] = test system: PV1 (poliovirus type 1 strain Sabin); test: microbe, parasite or virus in culture; assay type: cell-based; settings: Enterovirus C, BGM
[5] = test system: CVB4 (strain E2 Edwards); test: Virus-cell-based antiviral assay (CPE reduction, MTS); settings: Enterovirus B, BGM cells
[6] = test system: EV71-B5 (strain TW/96016/08 genogroup B5); test: as above; parameters: species or system enterovirus 71; settings: Enterovirus A; EV71 strain TW/96016/08 genogroup B5; RD cells
[7] = test system: HRV14 (human rhinovirus type 14); test: as above; settings: Human rhinovirus sp., HeLa H1 cells (footnote c), 35°C
[8] = test system: CVA16 (strain G-10); test: as above; parameters: species or system coxsackievirus A16; settings: Enterovirus A, HeLa H1 cells
[9] = in vitro; settings: African green monkey
[10] = test system: ECHO11 (echovirus 11 strain Gregory); test: Virus-cell-based antiviral assay (CPE reduction, MTS); settings: Enterovirus B, BGM cells
[11] = test system: EV71-B2 (strain 11316 genogroup B2); test: as above; parameters: species or system enterovirus 71; settings: Enterovirus A; EV71 strain 11316 genogroup B2; RD cells
[12] = test system: CVA21 (strain Coe); test: as above; settings: BGM cells
[13] = test system: PV3 (poliovirus type 3 strain Sabin); test: microbe, parasite or virus in culture; assay type: cell-based; settings: Enterovirus C, BGM
[14] = test system: PV2 (poliovirus type 2 strain Sabin); test: microbe, parasite or virus in culture; assay type: cell-based; settings: Enterovirus C, BGM

Compound	EC50 [1] [nM]	EC50 [2] [nM]	EC50 [3] [nM]	EC50 [4] [nM]	EC50 [5] [nM]	EC50 [6] [nM]	EC50 [7] [nM]	EC50 [8] [nM]	CC50 [9] [nM]	EC50 [10] [nM]	EC50 [11] [nM]	EC50 [12] [nM]	EC50 [13] [nM]	EC50 [14] [nM]
CCON=Cc1ccc(OCCC(C)CCN2CCN(c3ccnc(C(N)=O)c3)C2=O)cc1 (stereo not shown) [ALD]	> 21000	5400 ± 1000	2200 ± 200	3500 ± 1400	> 7000	82 ± 23	843 ± 13	43 ± 8	7000 ± 1000	2100 ± 500	31 ± 12	56 ± 40	184 ± 8	75 ± 19
CCON=Cc1ccc(OCCC(C)CCN2CCN(c3ccncc3)C2=O)cc1 (stereo not shown) [GPP3]	1000 ± 700	1500 ± 100	3700 ± 200	200	> 7000	0.93 ± 0.3	1500 ± 300	14 ± 4	7000 ± 2000	500 ± 100	0.96 ± 0.6	16 ± 15	66	6
